# From US10611774B2, “Salt form of DPPIV inhibitor and preparation method thereof” (SHANGHAI INSTITUTE OF MATERIA MEDICA, CHINESE ACADEMY OF …, priority 2016, dated 2020)
# Key:
# [1] = Hygroscopicity analysis (DVS); type: physicochemical; conditions: for hygroscopicity (DVS): 25° C.; for water absorbed: at 80% RH; for humidity variation range: conventional storage humidity range
# Method: Dynamic vapor absorption (DVS) test/water absorption test rapidly measures the increase and loss of the moisture in the sample caused by flow carrier gas with set relative humidity (RH), wherein the sample is placed on a digital microbalance with high sensitivity and high stability at a self-suspension state, and then the adsorption/desorption of water vapor is measured by measuring the increase/decrease of mass of the material, thereby determining the hygroscopicity of the sample.
# In the present invention, the test parameters of the DVS are as follows: Instrument type: SMS DVS Intrinsic; Non-hydrate: 0 to 95%-0% RH; Temperature: 25° C.; Hydrate: 40 to 95%-0% RH; Temperature: 25° C.
# normal ICR mice = assay: Oral glucose tolerance of normal ICR mice; type: in vivo
# DPP IV [2] = target: T1, DPP IV (Rattus norvegicus, UniProt P14740); assay: Inhibition of DPP IV activity in normal rat plasma; type: in vivo
# T1 construct: from tissue; host or cells: plasma of normal rats
# DPP IV [3] = target: DPP IV (Homo sapiens, UniProt P27487); assay: DPP IV inhibitory activity and selectivity in vitro; type: biochemical
# DPP IV [4] = target: T2, DPP IV (Mus musculus, UniProt P28843); assay: Inhibition of DPP IV activity in normal mice plasma; type: in vivo
# T2 construct: from tissue; host or cells: plasma of normal mice
# ob/ob mice = assay: Fasting blood glucose of ob/ob mice, chronic administration; type: in vivo
# rats = assay: Subacute toxicity experiment of rats; type: in vivo; conditions: 150 mg/kg orally administrated group
# db/db mice = assay: Fasting blood glucose of gene-deficient db/db mice, chronic administration; type: in vivo
# Pharmacokinetics in dogs = type: in vivo
# Pharmacokinetics in rats = type: in vivo
# ICR mice = assay: Acute toxicity test of ICR mice; type: in vivo; conditions: 300 mg/kg administration group
# [5] = versus sitagliptin and vildagliptin
# Chain of DPP IV (Homo sapiens, UniProt P27487) (P27487 whole entry, species assumed): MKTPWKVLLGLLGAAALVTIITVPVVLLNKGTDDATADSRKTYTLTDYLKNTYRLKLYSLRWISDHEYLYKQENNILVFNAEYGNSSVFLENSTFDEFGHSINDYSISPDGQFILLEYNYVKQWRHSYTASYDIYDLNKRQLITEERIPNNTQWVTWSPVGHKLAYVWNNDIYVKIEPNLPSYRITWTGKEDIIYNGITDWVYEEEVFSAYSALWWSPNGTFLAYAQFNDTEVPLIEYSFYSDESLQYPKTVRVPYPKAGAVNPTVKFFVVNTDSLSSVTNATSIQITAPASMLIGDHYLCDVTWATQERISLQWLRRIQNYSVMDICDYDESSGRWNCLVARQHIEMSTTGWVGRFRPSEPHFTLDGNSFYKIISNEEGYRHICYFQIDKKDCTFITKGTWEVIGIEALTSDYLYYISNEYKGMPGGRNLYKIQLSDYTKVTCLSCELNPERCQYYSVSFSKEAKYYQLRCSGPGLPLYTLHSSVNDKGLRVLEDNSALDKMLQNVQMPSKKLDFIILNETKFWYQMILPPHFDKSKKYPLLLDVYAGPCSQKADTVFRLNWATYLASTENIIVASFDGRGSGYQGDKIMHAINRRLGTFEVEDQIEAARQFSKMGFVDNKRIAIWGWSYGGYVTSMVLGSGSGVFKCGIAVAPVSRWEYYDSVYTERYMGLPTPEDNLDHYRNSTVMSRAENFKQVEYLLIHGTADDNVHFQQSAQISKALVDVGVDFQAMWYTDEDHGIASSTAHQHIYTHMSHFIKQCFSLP
# T1 sequence (P14740 37-767 limits assumed): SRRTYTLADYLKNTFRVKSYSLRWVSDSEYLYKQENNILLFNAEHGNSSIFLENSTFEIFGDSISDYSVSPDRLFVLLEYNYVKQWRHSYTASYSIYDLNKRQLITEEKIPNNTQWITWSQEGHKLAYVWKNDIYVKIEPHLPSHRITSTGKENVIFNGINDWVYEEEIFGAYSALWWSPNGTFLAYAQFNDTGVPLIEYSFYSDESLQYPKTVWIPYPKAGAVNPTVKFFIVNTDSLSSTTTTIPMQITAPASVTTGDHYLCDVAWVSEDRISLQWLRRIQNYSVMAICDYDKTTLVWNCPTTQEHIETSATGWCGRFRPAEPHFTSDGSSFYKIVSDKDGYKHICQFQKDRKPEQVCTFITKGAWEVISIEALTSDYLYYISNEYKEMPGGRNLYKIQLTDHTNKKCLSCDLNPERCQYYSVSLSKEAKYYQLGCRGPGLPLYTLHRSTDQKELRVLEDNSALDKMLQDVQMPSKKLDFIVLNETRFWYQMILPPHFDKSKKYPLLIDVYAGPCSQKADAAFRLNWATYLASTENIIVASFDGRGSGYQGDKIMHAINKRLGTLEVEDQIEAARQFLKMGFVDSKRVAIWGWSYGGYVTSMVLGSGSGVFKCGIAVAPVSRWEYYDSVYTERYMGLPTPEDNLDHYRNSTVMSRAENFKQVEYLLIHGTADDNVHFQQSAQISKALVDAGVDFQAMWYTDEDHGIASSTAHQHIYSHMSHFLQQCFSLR
# T2 sequence (P28843 37-760 limits assumed): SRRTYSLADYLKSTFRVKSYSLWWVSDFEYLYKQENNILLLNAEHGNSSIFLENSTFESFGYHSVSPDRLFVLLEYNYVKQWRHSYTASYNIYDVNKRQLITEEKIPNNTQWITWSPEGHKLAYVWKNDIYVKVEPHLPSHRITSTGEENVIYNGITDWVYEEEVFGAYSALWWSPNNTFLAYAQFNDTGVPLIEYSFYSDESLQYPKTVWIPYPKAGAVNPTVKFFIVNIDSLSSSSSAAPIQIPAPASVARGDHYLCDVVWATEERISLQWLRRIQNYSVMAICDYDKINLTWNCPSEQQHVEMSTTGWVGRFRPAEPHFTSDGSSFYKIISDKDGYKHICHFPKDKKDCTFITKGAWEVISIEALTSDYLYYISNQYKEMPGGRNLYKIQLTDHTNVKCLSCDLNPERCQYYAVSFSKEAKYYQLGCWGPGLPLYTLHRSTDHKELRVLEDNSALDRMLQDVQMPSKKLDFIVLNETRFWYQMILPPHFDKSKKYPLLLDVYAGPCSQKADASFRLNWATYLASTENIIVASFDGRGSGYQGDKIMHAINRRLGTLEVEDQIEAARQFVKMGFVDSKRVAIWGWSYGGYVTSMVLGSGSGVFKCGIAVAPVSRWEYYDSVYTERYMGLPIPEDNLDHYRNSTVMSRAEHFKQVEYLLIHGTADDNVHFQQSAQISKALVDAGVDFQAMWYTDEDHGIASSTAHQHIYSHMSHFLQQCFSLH
compound,measurement,setting,value
"COC(=O)c1cc2nc(N3CCC[C@@H](N)C3)n(Cc3ccccc3C#N)c(=O)c2s1.Cl [hydrochloride, hydrochloride of (R)-methyl-2-(3-aminopiperidin-1-yl)-3-(2-cyanobenzyl)-4-carbonyl-3,4-dihydrothiophene [3,2-d] pyrimidine-6-carboxylic acid]",hygroscopicity (DVS),[1],slightly hygroscopic
same,water absorbed,[1],2.54%
same,humidity variation range,[1],less than 3.0%
"COC(=O)c1cc2nc(N3CCC[C@@H](N)C3)n(Cc3ccccc3C#N)c(=O)c2s1.O=P(O)(O)O [phosphate, phosphate of (R)-methyl-2-(3-aminopiperidin-1-yl)-3-(2-cyanobenzyl)-4-carbonyl-3,4-dihydrothiophene[3,2-d]pyrimidine-6-carboxylic acid]",hygroscopicity (DVS),[1],slightly hygroscopic
same,humidity variation range,[1],small
"COC(=O)c1cc2nc(N3CCC[C@@H](N)C3)n(Cc3ccccc3C#N)c(=O)c2s1 [compound of formula I, (R)-methyl-2-(3-aminopiperidin-1-yl)-3-(2-cyanobenzyl)-4-carbonyl-3,4-dihydrothiophene[3,2-d]pyrimidine-6-carboxylic acid]",effect on oral glucose tolerance,normal ICR mice,increase the oral glucose tolerance of normal ICR mice in a dose-dependent manner
same,"onset dose, oral glucose tolerance",normal ICR mice,0.1 mg/kg
same,oral glucose tolerance effect compared with alogliptin,normal ICR mice,better than alogliptin
same,DPP IV inhibitory activity in animals compared with alogliptin,DPP IV [2],superior to the marketed drug alogliptin
same,inhibition of DPP IV activity in plasma,DPP IV [2],effective in inhibiting DPP IV activity
same,DPP IV inhibitory activity,DPP IV [3]; in vitro,up to nanomolar level
same,DPP IV inhibitory activity in vitro compared with marketed drugs,DPP IV [3]; [5],"superior to the marketed drugs, sitagliptin and vildagliptin"
same,selectivity in vitro compared with marketed drugs,DPP IV [3]; [5],"superior to the marketed drugs, sitagliptin and vildagliptin"
same,DPP IV inhibitory activity in animals compared with alogliptin,DPP IV [4],superior to the marketed drug alogliptin
same,inhibition of DPP IV activity in plasma,DPP IV [4],effective in inhibiting DPP IV activity
same,effect on fasting blood glucose,ob/ob mice,effectively decrease fasting blood glucose
same,fasting blood glucose effect compared with positive control alogliptin,ob/ob mice,superior to the positive control drug alogliptin
same,subacute toxicity,rats,no obvious toxicity reaction
same,effect on fasting blood glucose,db/db mice,reduce its fasting blood glucose
same,fasting blood glucose effect compared with positive control alogliptin,db/db mice,comparable to the positive control drug alogliptin
same,AUC0-t compared with alogliptin,Pharmacokinetics in dogs,superior to those of the marketed drug alogliptin
same,half-life compared with alogliptin,Pharmacokinetics in dogs,superior to those of the marketed drug alogliptin
same,AUC0-t compared with alogliptin,Pharmacokinetics in rats,superior to those of the marketed drug alogliptin
same,half-life compared with alogliptin,Pharmacokinetics in rats,superior to those of the marketed drug alogliptin
same,"acute toxicity, animal death",ICR mice,no animal died
"glycolate of (R)-methyl-2-(3-aminopiperidin-1-yl)-3-(2-cyanobenzyl)-4-carbonyl-3,4-dihydrothiophene[3,2-d]pyrimidine-6-carboxylic acid",hygroscopicity (DVS),[1],slightly hygroscopic
same,water absorbed,[1],1.23%
same,humidity variation range,[1],less than 2.0%
"COC(=O)c1cc2nc(N3CCC[C@@H](N)C3)n(Cc3ccccc3C#N)c(=O)c2s1.O=C(O)/C=C\C(=O)O [maleate, maleate of (R)-methyl-2-(3-aminopiperidin-1-yl)-3-(2-cyanobenzyl)-4-carbonyl-3,4-dihydrothiophene[3,2-d]pyrimidine-6-carboxylic acid]",hygroscopicity (DVS),[1],slightly hygroscopicity
same,water absorbed,[1],1.57%
same,humidity variation range,[1],less than 2.0%
